Measured values as given in patent US12410163B2, “Compounds as GLP-IR agonists” (Terns Pharmaceuticals, Inc., priority 2022, dated 2025).

Experiments:
human GLP-1R receptor = target: T1, human GLP-1R receptor (Homo sapiens, UniProt P43220); test: GLP-1R low expression cell assay (cAMP TR-FRET, CHO-K1_hGLP-1Rlow_clone10); type: cell-based; conditions: CHO-K1_hGLP-1Rlow_clone10 cells, percent activation relative to control GLP-1 peptide
T1 construct: expressed in transfected cells
Procedure: Stable cell lines expressing high and low GLP-1R surface expression are generated in CHO-K1 cells transfected (Fugene 6) with a puromycin selectable DNA plasmid encoding human GLP-1R receptor (accession number: NM_002062.5) under control of an EF1A promoter. Transfected cells are seeded into 24-well plates (9,000 cells/well) containing complete medium and incubated in a humidified incubator at 37° C. with 5% carbon dioxide. After overnight incubation, medium is replaced with complete medium supplemented with puromycin (6 μg/mL) and refreshed every 2-3 days to select for stably transfected cells. Individual pools of selected cells are expanded prior to analysis for responsiveness to GLP-1 control peptide using a TR-FRET assay to detect cAMP (LANCE Ultra cAMP Assay, Perkin Elmer). Briefly, cells are collected in Versene solution, plated in 384-well plates (1,000 cells/well) and combined with serially diluted GLP-1R control peptide (10 nL) using an acoustic dispenser (ECHO). Plates are incubated for 30 minutes at 25° C. prior to the addition of EU-cAMP tracer (5 μL) and Ulight-anti-cAMP (5 μL) reagents to each well, followed by 15 minutes incubation at 25° C. TR-FRET signal is detected using an EnVision Multimode Plate Reader (excitation=320 nm; emission=615 and 655 nm). Dose-response curves are used to generate EC50 values as a measure of responsiveness to the GLP-1R control peptide. Selected cell lines are monitored for responsiveness over multiple passages to ensure stability. […] Briefly, GLP-1R expression is analyzed by flow cytometry using a fluorescein-labeled Exendin-4 peptide fluorescent probe (FLEX). Cells are harvested in Versene solution and washed 3-times with PBS+0.5% BSA before incubation with FLEX reagent (10 μM) for 2 hours at room temperature. After incubation, cells are washed 3-times in PBS+0.5% BSA before final resuspension in PBS prior to analysis by flow cytometry to measure FLEX mean fluorescence intensity (MFI) as a measure of GLP-1R expression on the cell surface.
For compound testing in the CHO-K1_hGLP-1Rlow_clone10 cell lines, cells are seeded in 384-well plates (1,000 cells/well). Test compounds are serially diluted in DMSO (10-point, 3-fold dilution), added to wells using an ECHO dispenser (10 nL/well) and plates are centrifuged for 1 min and agitated for 2 min at room temperature prior to 30-minute incubation at 25° C. After incubation, Eu-cAMP (5 μL) and Ulight-anti-cAMP (5 μL) reagents are added to each well, followed by centrifugation for 1 minute, agitation for 2 minutes at room temperature, and final incubation of the plates at 25° C. for 15 minutes. Plates are read using an EnVision microplate reader (excitation=320 nm; emission=615 and 655 nm). Dose-response curves are generated from duplicate wells based on percent activation calculated relative to a control GLP-1 peptide agonist that was run in parallel. EC50 values are determined by fitting percent activation as a function of compound concentration using the Hill equation (XLfit).
Stable cell lines expressing high and low GLP-1R surface expression were generated in CHO-K1 cells transfected (Fugene 6) with a puromycin selectable DNA plasmid encoding human GLP-1R receptor (accession number: NM_002062.5) under control of an EF1A promoter. Transfected cells were seeded into 24-well plates (9,000 cells/well) containing complete medium and incubated in a humidified incubator at 37° C. with 5% carbon dioxide. After overnight incubation, medium was replaced with complete medium supplemented with puromycin (6 μg/mL) and refreshed every 2-3 days to select for stably transfected cells. Individual pools of selected cells were expanded prior to analysis for responsiveness to GLP-1 control peptide using a TR-FRET assay to detect cAMP (LANCE Ultra cAMP Assay, Perkin Elmer).

[1] = Passive permeability and efflux ratio (Caco-2); type: in vitro ADME; conditions: human
Procedure: Caco-2 cells (clone C2BBe1) are obtained, e.g., from American Type Culture Collection (Manassas, VA). Cell monolayers are grown to confluence on collagen-coated, microporous membranes in 12-well assay plates. The permeability assay buffer is Hanks' balanced salt solution containing 10 mM HEPES and 15 mM glucose at a pH of 7.4. The buffer in the receiver chamber also contains 1% bovine serum albumin. The dosing solution concentration is 5 μM of test article in the assay buffer. Cell monolayers are dosed on the apical side (A-to-B) or basolateral side (B-to-A) and incubated at 37° C. with 5% CO2 in a humidified incubator. Samples are taken from the donor and receiver chambers at 120 minutes. Each determination is performed in duplicate. The flux of lucifer yellow is also measured post-experimentally for each monolayer to ensure no damage is inflicted to the cell monolayers during the flux period. All samples are assayed by LC-MS/MS using electrospray ionization. The apparent permeability (Papp) and percent recovery were calculated as follows: Papp=(dCr/dt)×Vr/(A×CA) (1) Percent Recovery=100×((Vr×Cr^final)+(Vd×Cd^final))/(Vd×CN) (2), where, dCr/dt is the slope of the cumulative receiver concentration versus time in μM s^−1; Vr is the volume of the receiver compartment in cm^3; Vd is the volume of the donor compartment in cm^3; A is the area of the insert (1.13 cm^2 for 12-well); CA is the average of the nominal dosing concentration and the measured 120-minute donor concentration in μM; CN is the nominal concentration of the dosing solution in μM; Cr^final is the cumulative receiver concentration in μM at the end of the incubation period; Cd^final is the concentration of the donor in μM at the end of the incubation period. Efflux ratio (ER) is defined as Papp (B-to-A)/Papp (A-to-B). Rat Pharmacokinetics
Caco-2 cells (clone C2BBe1) were obtained from American Type Culture Collection (Manassas, VA). Cell monolayers were grown to confluence on collagen-coated, microporous membranes in 12-well assay plates. Details of the plates and their certification are shown below. The permeability assay buffer was Hanks' balanced salt solution containing 10 mM HEPES and 15 mM glucose at a pH of 7.4. The buffer in the receiver chamber also contained 1% bovine serum albumin. The dosing solution concentration was 5 μM of test article in the assay buffer. Cell monolayers were dosed on the apical side (A-to-B) or basolateral side (B-to-A) and incubated at 37° C. with 5% CO2 in a humidified incubator. Samples were taken from the donor and receiver chambers at 120 minutes. Each determination was performed in duplicate. The flux of lucifer yellow was also measured post-experimentally for each monolayer to ensure no damage was inflicted to the cell monolayers during the flux period. All samples were assayed by LC-MS/MS using electrospray ionization. The apparent permeability (Papp) and percent recovery were calculated as follows: Papp=(dCr/dt)×Vr/(A×CA) (1) Percent Recovery=100×((Vr×Cr^final)+(Vd×Cd^final))/(Vd×CN) (2), where, dCr/dt is the slope of the cumulative receiver concentration versus time in μM s^−1; Vr is the volume of the receiver compartment in cm^3; Vd is the volume of the donor compartment in cm^3; A is the area of the insert (1.13 cm^2 for 12-well); CA is the average of the nominal dosing concentration and the measured 120-minute donor concentration in μM; CN is the nominal concentration of the dosing solution in μM; Cr^final is the cumulative receiver concentration in μM at the end of the incubation period; Cd^final is the concentration of the donor in μM at the end of the incubation period. Efflux ratio (ER) is defined as Papp (B-to-A)/Papp (A-to-B).

Rat pharmacokinetics [2] = type: in vivo; conditions: male Sprague-Dawley rats, plasma, route not stated in table (IV or oral gavage 10 mL/kg of 0.3 or 0.6 mg/mL)
Rat pharmacokinetics [3] = type: in vivo; parameters: AUC: concentration or dose not given beside the values; conditions: male Sprague-Dawley rats, plasma, route not given; for half-life: read-out: Rat T1/2 (converted)
Procedure: Intravenous dosing: Compounds were formulated at 0.5 mg/mL in a solution comprising 5% polyethylene glycol 400 and 95% (12% (w/v) sulfobutyl-β-cyclodextrin in water) (v/v). Formulated compounds were sterile filtered through a 0.22 micron filter before dosing. Compounds were administered to male, 7-11-week-old Sprague-Dawley rats by jugular vein cannula infusion over 30 minutes at a dose of 1 mg/kg. […]
Sample collection: Blood collections of about 0.2 mL per time point were performed from jugular vein or other suitable site of each animal, into pre-chilled commercial EDTA-K2 tubes and placed on wet ice until centrifugation. Blood samples were processed for plasma by centrifugation at approximately 4° C., 3,200 g for 10 min. Plasma was collected and transferred into pre-labeled 96 well plate or polypropylene tubes, quick frozen over dry ice and kept at −60° C. or lower until LC-MS/MS analysis.
Data analysis: Plasma concentration versus time data was plotted in graph and analyzed by non-compartmental approaches using the Phoenix WinNonlin 6.3 software program. Related PK parameters were calculated according to dosing route, e.g., CL, Vdss and C0 for intravenous administration, Cmax, Tmax or % F for extravascular administration, and T1/2, AUC(0-t), AUC(0-inf), MRT(0-t), MRT(0-inf) for all routes.

T1 sequence (P43220 24-463): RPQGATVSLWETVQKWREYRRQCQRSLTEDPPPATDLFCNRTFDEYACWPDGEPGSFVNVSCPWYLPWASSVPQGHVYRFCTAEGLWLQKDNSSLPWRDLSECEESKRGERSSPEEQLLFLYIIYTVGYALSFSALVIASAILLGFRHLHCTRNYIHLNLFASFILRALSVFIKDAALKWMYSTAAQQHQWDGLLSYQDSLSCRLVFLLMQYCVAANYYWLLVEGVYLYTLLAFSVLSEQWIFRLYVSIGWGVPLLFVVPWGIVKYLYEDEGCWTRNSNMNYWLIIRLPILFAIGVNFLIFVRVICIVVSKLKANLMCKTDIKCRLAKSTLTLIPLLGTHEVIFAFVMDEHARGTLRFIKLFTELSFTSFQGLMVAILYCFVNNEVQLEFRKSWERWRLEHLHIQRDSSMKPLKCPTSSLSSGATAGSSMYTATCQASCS

EC50 (human GLP-1R receptor) [nM] | efflux ratio at 120 min, 5 μM ([1]; pH 7.4, Caco-2, efflux ratio = Papp (B-to-A)/Papp (A-to-B), read-out: ER) | Papp A→B at 120 min, 5 μM ([1]; Caco-2, 5 μM, pH 7.4, 120 minutes) [×10⁻⁶ cm/s] | Cmax (Rat pharmacokinetics [2]) [ng/mL] | AUC (Rat pharmacokinetics [3]) [ng·h/mL] | half-life (Rat pharmacokinetics [3]) [h] | Compound
< 5 | 1.82 | 19.9 |  |  |  | CC1(c2ccc(C#N)cc2F)Oc2cccc(N3CCN(Cc4nc5ccc(C(=O)O)cc5n4Cc4cncs4)C4CC43)c2O1 (centres unmarked) [Compound 34, 2-((5-(2-(4-Cyano-2-fluorophenyl)-2-methylbenzo[d][1,3]dioxol-4-yl)-2,5-diazabicyclo[4.1.0]heptan-2-yl)methyl)-1-(thiazol-5-ylmethyl)-1H-benzo[d]imidazole-6-carboxylic Acid]
5 to 50 |  |  | 19.3 ± 2.7 | 20.7 ± 12.6 | 1.8 | C[C@]1(c2ccc(C#N)cc2F)Oc2cccc(N3CCN(Cc4nc5ccc(C(=O)O)cc5n4Cc4cncs4)[C@H]4C[C@H]43)c2O1 [Compound 36, 2-((5-(2-(4-Cyano-2-fluorophenyl)-2-methylbenzo[d][1,3]dioxol-4-yl)-2,5-diazabicyclo[4.1.0]heptan-2-yl)methyl)-1-(thiazol-5-ylmethyl)-1H-benzo[d]imidazole-6-carboxylic Acid]
< 5 |  |  | 20 ± 7.7 | 15.8 ± 7.6 |  | C[C@@]1(c2ccc(C#N)cc2F)Oc2cccc(N3CCN(Cc4nc5ccc(C(=O)O)cc5n4Cc4cncs4)[C@@H]4C[C@@H]43)c2O1 [Compound 37, 2-((5-(2-(4-Cyano-2-fluorophenyl)-2-methylbenzo[d][1,3]dioxol-4-yl)-2,5-diazabicyclo[4.1.0]heptan-2-yl)methyl)-1-(thiazol-5-ylmethyl)-1H-benzo[d]imidazole-6-carboxylic Acid]
> 100 |  |  | 58.3 ± 9.74 | 109 ± 21.5 | 1.6 | C[C@]1(c2ccc(C#N)cc2F)Oc2cccc(N3CCN(Cc4nc5ccc(C(=O)O)cc5n4Cc4cncs4)[C@@H]4C[C@@H]43)c2O1 [Compound 38, 2-((5-(2-(4-Cyano-2-fluorophenyl)-2-methylbenzo[d][1,3]dioxol-4-yl)-2,5-diazabicyclo[4.1.0]heptan-2-yl)methyl)-1-(thiazol-5-ylmethyl)-1H-benzo[d]imidazole-6-carboxylic Acid]
